Laboratory results from doi:10.1101/2021.11.05.467463v1 (biorxiv, 2021).
≈ marks a conversion by molar mass, not a printed value.

What was measured:
[1] = target: T1, PfPKG (Plasmodium falciparum, UniProt Q8I719); assay: in vitro PfPKG enzyme inhibition assay; format: biochemical; settings: […] compound
[2] = target: CYP3A4 (Homo sapiens, UniProt P08684); assay: in vitro CYP3A4 inhibition; format: biochemical
[3] = physchem; settings: water
[4] = mouse, microsomes
[5] = target: T1, PfPKG; assay: in vitro PfPKG enzyme inhibition assay; format: biochemical; settings: […] compound; remark: listed apart in the source
[6] = target: T1, PfPKG; assay: in vitro PfPKG enzyme inhibition assay; format: biochemical

T1 sequence (Q8I719 whole entry): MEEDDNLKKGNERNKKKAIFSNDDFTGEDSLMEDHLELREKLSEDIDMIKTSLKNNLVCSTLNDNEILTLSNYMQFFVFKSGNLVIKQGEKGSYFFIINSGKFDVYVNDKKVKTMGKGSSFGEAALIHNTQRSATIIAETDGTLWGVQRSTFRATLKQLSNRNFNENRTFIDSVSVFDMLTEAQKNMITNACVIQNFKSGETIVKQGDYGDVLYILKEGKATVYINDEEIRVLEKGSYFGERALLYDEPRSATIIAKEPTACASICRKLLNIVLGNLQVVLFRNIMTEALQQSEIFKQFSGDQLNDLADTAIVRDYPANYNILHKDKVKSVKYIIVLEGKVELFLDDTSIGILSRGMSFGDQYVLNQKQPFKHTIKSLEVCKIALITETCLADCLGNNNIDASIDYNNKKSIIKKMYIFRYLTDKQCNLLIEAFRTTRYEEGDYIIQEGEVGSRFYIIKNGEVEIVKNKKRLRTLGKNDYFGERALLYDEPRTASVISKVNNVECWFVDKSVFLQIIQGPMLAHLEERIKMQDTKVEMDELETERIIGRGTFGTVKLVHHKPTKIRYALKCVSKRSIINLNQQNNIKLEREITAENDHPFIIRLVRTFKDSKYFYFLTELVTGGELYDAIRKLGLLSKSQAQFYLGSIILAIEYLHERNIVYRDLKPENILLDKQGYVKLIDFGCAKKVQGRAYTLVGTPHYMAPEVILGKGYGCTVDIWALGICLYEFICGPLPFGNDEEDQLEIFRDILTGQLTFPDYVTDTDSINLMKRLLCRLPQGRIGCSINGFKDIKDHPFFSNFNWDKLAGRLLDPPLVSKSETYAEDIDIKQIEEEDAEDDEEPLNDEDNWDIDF
Chain of CYP3A4 (P08684 2-503): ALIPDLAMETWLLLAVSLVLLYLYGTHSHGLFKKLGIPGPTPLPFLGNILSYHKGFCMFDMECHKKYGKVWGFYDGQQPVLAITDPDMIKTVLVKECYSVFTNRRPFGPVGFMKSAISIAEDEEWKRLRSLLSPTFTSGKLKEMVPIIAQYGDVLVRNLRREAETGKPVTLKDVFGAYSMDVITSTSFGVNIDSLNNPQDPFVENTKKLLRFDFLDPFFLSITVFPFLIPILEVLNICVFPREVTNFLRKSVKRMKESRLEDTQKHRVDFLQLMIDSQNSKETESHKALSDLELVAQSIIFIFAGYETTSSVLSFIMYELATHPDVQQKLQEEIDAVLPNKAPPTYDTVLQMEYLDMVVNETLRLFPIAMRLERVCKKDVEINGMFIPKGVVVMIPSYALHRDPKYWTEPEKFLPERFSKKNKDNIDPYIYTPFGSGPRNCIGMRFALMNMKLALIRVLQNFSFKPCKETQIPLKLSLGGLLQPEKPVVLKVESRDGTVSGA

Structure (SMILES): Cc1cn(-c2ccnc(NC3CCCN(C(=O)c4nccs4)C3)n2)c(-c2ccccc2)n1 (racemic) [10d]
- % inh @ 1 μM [1]: 4%

Structure (SMILES): Cc1cn(-c2ccnc(NCC3CCCN3C(=O)c3nccs3)n2)c(-c2ccccc2)n1 (racemic) [10f]
- % inh @ 1 μM [1]: 3%

Structure (SMILES): Cc1cn(-c2ccnc(N[C@@H]3CCN(C(=O)c4nccs4)C3)n2)c(-c2ccccc2)n1 [10a]
- IC50 [2]: 940 nM

Structure (SMILES): Cc1cn(-c2ccnc(N[C@H]3CCN(C(=O)c4nccs4)C3)n2)c(-c2ccccc2)n1 [10c]
- % inh @ 1 μM [1]: 4%

Structure (SMILES): Cc1cn(-c2ccnc(NC3CCN(C(=O)c4nccs4)CC3)n2)c(-c2ccccc2)n1 [10e]
- % inh @ 1 μM [1]: 5%

Structure (SMILES): O=C(c1nccs1)N1CC[C@@H](Nc2nccc(-n3cc(C4CC4)nc3-c3ccccc3)n2)C1 [14a]
- solubility [3]: 92 µM (≈ 42.1 µg/mL)
- MLM t1/2 [4]: < 2 min

Structure (SMILES): O=C(c1nccs1)N1CC[C@@H](Nc2nccc(-n3cc(C4CC4)nc3-c3cccc(Cl)c3)n2)C1 [14b]
- solubility [3]: 28 µM (≈ 13.8 µg/mL)
- MLM t1/2 [4]: <2 min

Structure (SMILES): Cc1cn(-c2ccnc(N[C@@H]3CCN(C(=O)c4nccs4)C3)n2)c(-c2ccccc2Cl)n1 [18b]
- % inhib @ 1 μM [5]: 47%

Structure (SMILES): CN1CCC(c2cc(-c3ccc(F)cc3)c(-c3ccncc3)[nH]2)CC1 [compound 5, pyrrole 5]
- IC50 [6]: 22 nM
